Entries after “also recorded” stand apart in the source; their conditions may differ. Where two headings read alike, the source gives them in different places.
What was measured:
human AR = human AR (Homo sapiens, UniProt P10275); assay: AR radioligand ([3H]methyltrienolone) receptor-binding assay
Procedure: Binding to ER and AR was conducted using standard methods for radioligand assays (Kurata et al. [2005]; Zava et al. [1979]).
The chemicals were tested for their ability to bind to different targets. In radioligand assays, targets included the binding affinity to human (non-selective) ER and human AR (Kurata et al. 2005; Zava et al. 1979). Chemicals were incubated at 10 µM with cells overexpressing ER or AR for 24 h at 4°C, after which, the binding of the radiolabeled ligand ([^3H]estradiol for ER and [^3H]methyltrienolone for AR) was measured by liquid scintillation counting. An increase or decrease higher than 50% were considered to represent significant effects. […] Receptor binding was calculated as a % inhibition of the binding of a radioactively labeled ligand specific for each target.
Each test chemical was tested in a single assay in duplicate.

ER [1] = assay: ToxCast ER assays and final ToxCast call; conditions: for Final "true" call (ToxCast) ER: from active ToxCast assays, cytotoxicity, ToxCast Pathway Model and CERAPP Potency Level; for ToxCast result (ER): overall call from ToxCast data (Supplementary Table 2)
Excerpt: (§1) A rich source of data can be found in the EPA's ToxCast database (US EPA). This contains ED data for ~ 1800 chemicals in more than 700 high-throughput assay endpoints that cover a range of high-level cell responses. The US EPA is running an Endocrine Disruption Screening Program (EDSP), with the aim of prioritising chemicals using high-throughput screening methods and computational toxicology approaches to evaluate thousands of chemicals for ED activities. The OECD framework for ED assessment (OECD [2018]) requires animal testing at higher levels, where relevant in vitro alternatives are missing e.g. for developmental, reproductive, neurological and immune effects. However, such follow-up testing is not possible for the cosmetics industry especially in the EU due to the complete animal testing ban which came into force in March 2013 (EU [2009]). Even for other industries, animal models are not suitable for assessing ED effects due to issues relating to ethics, capacity, speed and relevance (Patisaul et al. [2018]). Therefore, chemicals which cannot be evaluated using in vivo method must be assessed using alternative methods e.g. in silico and in vitro methods listed in Levels 1 and 2 of the framework described in the OECD 150 test guideline (OECD [2018]).
(§2) The performance of different in silico models for ED effects tends to be evaluated on single model for a single effect, such as ER or AR binding, agonism or antagonism (normally by the developer), or a limited number of models using multiple chemicals (Weyrich et al. [2022]). Multi-organisation collaborations have also evaluated multiple models for a specific effect e.g. ER (Mansouri et al. [2016]) and AR (Mansouri et al. [2020]) effects. Therefore, we have conducted a side-by-side comparison of multiple different in silico models covering three pathways in ED, namely ER, AR and aromatase inhibition and compared these with ToxCast-derived final calls, as well as with results from in vitro assays. The efficiency of the in silico models was evaluated as a metric for the ability of the in silico model to generate concrete predictions. […] In vivo data were available for some but not all chemicals; therefore, an evaluation of the performance of the methods was made by comparing the derived overall calls from in silico models with those from the ToxCast database. The final call for each chemical evaluated in the ToxCast assays was made by considering the active-flagged assays and the corresponding cytotoxicity levels, the ToxCast Pathway Model (Browne et al. [2015]) and the CERAPP Potency Level (Mansouri et al. [2016]) for ER effects and the ToxCast Pathway Model (Kleinstreuer et al. [2017]) for AR effects (see Online Resource 1 Supplementary Tables 2, 4 and 6 for the outcome of the ER, AR and aromatase ToxCast assays, additional literature and final calls for each chemical and target).

AR [2] = assay: ToxCast AR assays and final ToxCast call; conditions: for Final "true" call (ToxCast): AR effects, from active assays, cytotoxicity and pathway model; for ToxCast result: AR overall call from Supplementary Table 4; for Final "true" call (ToxCast) AR: from ToxCast assays and ToxCast Pathway Model
Excerpt: as §1, §2

ER [3] = tested on: ER; parameters: method as in Mansouri et al. 2016; conditions: ref Mansouri et al. 2016; cited from earlier work
AR [4] = tested on: AR; parameters: method as in ToxCast; conditions: ref ToxCast, cited from earlier work; for ToxCast conclusion from assays result: AR sheet; for ToxCast 1: (Active assays), number of positive assays / assays run: ToxCast AR assays
aromatase = tested on: aromatase; parameters: method as in US EPA ToxCast; conditions: ref US EPA ToxCast, cited from earlier work; for ToxCast (assays Comments), efficacy: borderline: less than 50% efficacy
AR [5] = biological target: T1, AR (Homo sapiens, UniProt P10275); assay: (anti-)AR CALUX receptor transactivation assay; format: cell-based; parameters: expressed in transfected cells; host or cells: CALUX cells (U2-OS is named only for the cytotoxicity CALUX)
T1 sequence (P10275 1-920): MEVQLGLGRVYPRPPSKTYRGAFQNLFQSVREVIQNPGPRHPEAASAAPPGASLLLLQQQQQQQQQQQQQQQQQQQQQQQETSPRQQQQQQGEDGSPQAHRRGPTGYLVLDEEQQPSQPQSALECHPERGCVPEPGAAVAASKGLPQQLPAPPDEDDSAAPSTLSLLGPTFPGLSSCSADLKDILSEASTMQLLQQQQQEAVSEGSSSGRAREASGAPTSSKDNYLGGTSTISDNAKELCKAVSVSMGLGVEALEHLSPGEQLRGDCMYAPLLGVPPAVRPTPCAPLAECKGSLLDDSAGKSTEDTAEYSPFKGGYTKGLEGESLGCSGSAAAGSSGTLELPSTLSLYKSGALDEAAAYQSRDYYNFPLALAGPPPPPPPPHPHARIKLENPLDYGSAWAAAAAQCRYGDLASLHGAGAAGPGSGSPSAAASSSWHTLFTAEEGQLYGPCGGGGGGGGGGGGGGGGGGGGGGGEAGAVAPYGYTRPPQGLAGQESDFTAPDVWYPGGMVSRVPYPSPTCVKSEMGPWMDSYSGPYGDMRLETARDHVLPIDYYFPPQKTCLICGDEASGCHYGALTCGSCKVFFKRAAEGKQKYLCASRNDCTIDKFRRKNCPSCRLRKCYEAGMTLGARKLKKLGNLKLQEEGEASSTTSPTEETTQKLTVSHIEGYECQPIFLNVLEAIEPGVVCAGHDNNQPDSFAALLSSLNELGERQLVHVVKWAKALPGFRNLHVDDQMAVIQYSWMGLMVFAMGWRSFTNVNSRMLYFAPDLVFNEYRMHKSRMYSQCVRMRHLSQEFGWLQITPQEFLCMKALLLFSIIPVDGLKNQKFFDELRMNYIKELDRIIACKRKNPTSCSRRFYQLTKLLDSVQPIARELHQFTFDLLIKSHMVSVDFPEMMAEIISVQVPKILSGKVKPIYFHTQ
Procedure: The human CALUX® assays were used to measure the impact of test compounds on estrogen and androgen pathways. […] Chemicals can activate (or inactivate, in the case of an antagonistic activity) a ligand-specific pathway by binding to the receptor (ER, AR), after which the receptor-ligand complex binds to specific DNA REs […], resulting in increased (or decreased) cellular expression of a marker protein (e.g., luciferase).
Chemicals were dissolved and diluted in DMSO. […] The cytotoxicity of each test chemical was assessed using the U2-OS based cytotoxicity CALUX bioassay. Concentrations causing >20% reduction of luminescence were considered cytotoxic. […] Luciferase production was quantified by measuring luminescence following addition of luciferin. For antagonist assays, a fixed concentration of receptor agonist was co-incubated with a range of concentrations of the test chemical. […] For the AR assays, dihydrotestosterone was the positive control for agonistic effects and flutamide was the positive control for antagonist effects.
Each test chemical was tested in triplicates in two independent experiments.

Compound | AR binding outcome (human AR) | Final "true" call (ToxCast) ER (ER [1]) | ToxCast result (ER) (ER [1]) | Final "true" call (ToxCast) (AR [2]) | ToxCast result (AR [2]) | Final "true" call (ToxCast) AR (AR [2]) | CERAPP Potency Level (ER [3]) | ToxCast conclusion from assays result (AR [4]) | ToxCast (Aromatase assays), positive/total (aromatase) | ToxCast 1: (Active assays), number of positive assays / assays run (AR [4]) | outcome in the AR transactivation assay (AR [5]) | further results
CC(C)(C)CC(C)(C)c1ccc(O)cc1 [4-TO, 4-tert-octylphenol] | significant binding | Positive for agonism | ER agonist only | Positive for antagonism | AR antagonist only | Positive for antagonism | Weak agonist & strong antagonist | Endocrine Disruption Potential.Significant Estrogen Receptor activity seen | 2/2 positive |  |  | inhibition at 10 µM (human AR; read-out: inhibition of control specific binding to the AR): 10%; ToxCast (assays Comments), efficacy (aromatase): 31.35%; ToxCast (assays Comments), efficacy (aromatase; listed as 4-tert-Octylphenol): Boarderline: less than 50% efficacy (31.35%); ToxCast (Aromatase assays), assay listed as active (aromatase; each listed assay name = active assay): TOX21_Aromatase_Inhibition; also recorded: TOX21_Aromatase_Inhibition_viability; LEC, AR antagonism (AR [5]): 0.44 µM
CCCCN(CCCC)c1ccc(C(=O)c2ccccc2C(=O)O)c(O)c1 [DBABA, 2-[4-(dibutylamino)-2-hydroxybenzoyl]benzoic acid] | did not bind to the AR | Inconclusive |  | Negative | Negative | Negative | Negative | Endocrine Disruption Potential.Significant Estrogen Receptor activity seen | 0/2 positive | 2/8 positive | negative | ToxCast 1: (assays Comments) (AR [4]; TOX21_AR_BLA_Antagonist_ratio): Only highest concentration above the baseline; efficacy (assays Comments) (AR [4]; TOX21_AR_BLA_Antagonist_viability): Boarderline: less than 50% efficacy (26.5%)
O=c1c(-c2ccc(O)cc2)coc2cc(O)ccc12 [Daidzein, daidzein] | did not bind to the AR | Positive for agonism and antagonism | ER agonist and antagonist | Inconclusive |  |  | Weak agonist & strong antagonist | Endocrine Disruption Potential.Significant Estrogen Receptor activity seen | 0/2 positive | 2/15 positive | negative | efficacy (assays Comments) (AR [4]; TOX21_AR_LUC_MDAKB2_Agonist): Boarderline: less than 50% efficacy (20.8%)
C[C@]12CCC(=O)C[C@@H]1CC[C@@H]1[C@@H]2CC[C@@]2(C)[C@H]1CC[C@]2(C)O [Mestanolone, mestanolone, reference compound] |  | Positive for agonism and antagonism | ER agonist and antagonist | Positive for agonism | AR agonist only | Positive for agonism | Weak agonist & strong antagonist | Endocrine Disruption Potential.Significant Estrogen Receptor activity seen | 0/2 positive | 2/6 positive |  | ToxCast 1: (assays Comments) (AR [4]; TOX21_AR_BLA_Agonist_ratio): High active; ToxCast 1: (assays Comments) (AR [4]; TOX21_AR_LUC_MDAKB2_Agonist): High active

Source: paper PMC10761396, “Evaluation of new alternative methods for the identification of estrogenic, androgenic and steroidogenic effects: a comparative in vitro/in silico study” (Archives of Toxicology, 2023)
